Values quoted from earlier work as cited in patent publication US20230173296A1, “INTRACAVITARY PHOTODYNAMIC THERAPY” (Simphotek, Inc., priority 2020, published 2023).
Read-outs that look alike come from different tables or passages of the source. One block for each compound: values may come before it.

What was measured:
[1] = tested on: Human prostate; conditions: Davidson et. al., 2009
[2] = tested on: cancer in rabbits; conditions: I-PDT, Shafirstein et. al., 2018
[3] = tested on: cancer in mice; conditions: I-PDT, Shafirstein et. al., 2018
[4] = tested on: tumors in mice; conditions: Qiu et. al., 2016

- ε, PS extinction coefficient (690 nm): BPD (690 nm): 0.0783 cm^−1 μM^−1
Compound: benzoporphyrin derivative monoacid ring A [BPD]

Compound: CC[C@H]1c2cc3[n-]c4c(c3C)C(=O)[C@H](C(=O)OC)c4c3nc(cc4[n-]c(cc(n2)[C@@H]1C)c(C(C)=O)c4C)[C@@H](C)[C@@H]3CCC(=O)O.[Pd+2] [TOOKAD]
- Threshold Light Dose [1]: >23 (Davidson et. al., 2009) J/cm^2

- ε, PS extinction coefficient (650 nm): mTHPC (650 nm): 0.048 cm^−1 μM^−1
Compound: Oc1cccc(-c2c3nc(c(-c4cccc(O)c4)c4ccc([nH]4)c(-c4cccc(O)c4)c4nc(c(-c5cccc(O)c5)c5ccc2[nH]5)CC4)C=C3)c1 [mTHPC]

- ε, PS extinction coefficient (630 nm): Photofrin (630 nm): 0.0035 cm^−1 μM^−1
Compound: Photofrin
- Threshold Light Dose Rate ϕT [2]: 16.5 (Shafirstein et. al., 2018) mW/cm^2
- Threshold Light Dose Rate ϕT [3]: 8.4 (Shafirstein et. al., 2018) mW/cm^2
- Threshold [^1O2]dose [4]: >1.0 (Qiu et. al., 2016) mM
